The values that follow are results of earlier work, collected in patent US20090196940A1, “COMPOSITIONS AND METHODS FOR SUPPORTING HEAT SHOCK FUNCTION” (priority 2007, published 2009).

The test system of data set [1] is heat shock proteins / HSF1. The note with it: in vitro, treated cells.
Data set [2] has as its system HSP70. The conditions noted are these: mice, administration of schisandrin B.
For data set [3], the system named is cultured mouse skeletal cells (HSP72).

As to `C[C@@]12C[C@@]3(O)O[C@@H](O1)[C@]1(COC(=O)c4ccccc4)[C@H]3C[C@@]12O[C@@H]1O[C@H](CO)[C@@H](O)[C@H](O)[C@H]1O` [paeoniflorin, Paeoniflorin], in data set [1], the “levels of expression of heat shock proteins” value is recorded as “enhanced levels of expression of heat shock proteins” and the “phosphorylation of HSF1” value is “resulted in phosphorylation of HSF1”.
Turning to `COc1cc2c(c(OC)c1OC)-c1c(cc3c(c1OC)OCO3)CC(C)C(C)C2` (stereo not drawn) [schisandrin B, Schisandrin B], the “production of HSP70” value in data set [2] is “increase the production of HSP70”.
Geranylgeranylacetone: in data set [3], the “differentiation of myoblasts into myotubules” value is “facilitate the differentiation of myoblasts into myotubules”, the “expression of HSP72” value is given as “up-regulated the expression of HSP72” and the muscular protein content result was “increased muscular protein content in a dose-dependent manner”.
